Calls of active or inactive are those of the source. The rule behind the calls is not given here. Where a SMILES comes first, the peptide text is derived from it.
These molecules were tested against Influenza A virus M2 proton channel (A/TW/4845/1999 H1N1) (assay: NMR binding screen, influenza A virus M2 proton channel, Kd (AID 1549)). Details: M2 protein.
With `O=C(O)C1CSC(c2ccco2)N1` (stereo not drawn) the Kd was > 4 mM (inactive).
For `O=C(Cc1ccc(F)cc1)Nc1ncccn1`, the Kd was > 4 mM (inactive).
In the case of `NC(=O)c1ccsc1NC(=O)c1ccco1`, the Kd is reported as > 4 mM (inactive).
`Cc1nn(CC(=O)Nc2ccccc2)c(=O)c2ccccc12` was tested, and the Kd was > 4 mM (inactive).
`COc1ccc2c(C)cc(=O)oc2c1` was tested, and the Kd was > 4 mM (inactive).
In the case of `c1ccc(-n2nnnc2Oc2cccc3cccnc23)cc1`, the Kd is reported as > 4 mM (inactive).
In the case of `COc1ccc([C@@H]2CC(=O)c3c(O)cc(O[C@@H]4O[C@H](CO[C@H]5O[C@@H](C)[C@H](O)[C@@H](O)[C@H]5O)[C@@H](O)[C@H](O)[C@H]4O)cc3O2)cc1O`, the Kd is reported as > 4 mM (inactive).
`Cc1ncoc1C(=O)Nc1ccccc1C(N)=O` was tested, and the Kd was > 4 mM (inactive).
`CCNC(=O)CC[C@H](N)C(=O)O` was tested, and the Kd was > 4 mM (inactive).
With `COc1ccc(C(C)=O)c(O)c1` the Kd was > 4 mM (inactive).
For `O=C(Nc1cccc(O)c1)c1ccccc1`, the Kd was > 4 mM (inactive).
With `COc1cc(C(=S)N2CCCC2)cc(Cl)c1O` the Kd was > 4 mM (inactive).
`CC(=O)N[C@@H](CC(=O)O)C(=O)N[C@@H](CCC(=O)O)C(=O)O` (Ac-Asp-Glu-OH) was tested, and the Kd was > 4 mM (inactive).
In the case of `O=C1Nc2ccccc2C1(O)Cc1ccncc1` (stereo not drawn), the Kd is reported as > 4 mM (inactive).
With `COCC(=O)Nc1ccc(F)cc1F` the Kd was > 4 mM (inactive).
`Cc1cc(O)c(C)c(O)c1C(=O)O` was tested, and the Kd was > 4 mM (inactive).
For `CC(C)NC(=S)NCc1cnn(C)c1`, the Kd was > 4 mM (inactive).
`Nc1nnc(SCc2cccnc2)s1` was tested, and the Kd was > 4 mM (inactive).
With `Cn1ncc(N2CCOCC2)c(Cl)c1=O` the Kd was > 4 mM (inactive).
For `COc1ccc2c(c1)OC[C@@H](Cc1ccc(OC)c(OC)c1)[C@H]2O`, the Kd was > 4 mM (inactive).
`COc1ccc(S(N)(=O)=O)cc1` was tested, and the Kd was > 4 mM (inactive).
With `COc1cccc(NC(=O)c2cnn(C)c2Cl)c1` the Kd was > 4 mM (inactive).
In the case of `CC1=CCc2c(cc3oc(C)cc(=O)c3c2O)OC1`, the Kd is reported as > 4 mM (inactive).
`Cc1occc1C(=O)Nc1sccc1C(N)=O` was tested, and the Kd was > 4 mM (inactive).
`CC1(C)C=CC(=O)[C@@]2(C)C1CC(=O)[C@]1(C)C2CC[C@@]2(C)[C@H](c3ccoc3)OC(=O)C3OC321` (stereo partly drawn) was tested, and the Kd was > 4 mM (inactive).
With `Cc1[nH]c2ccccc2c1CN(C)C` the Kd was > 4 mM (inactive).
For `COc1ccccc1Nc1nncc(=O)[nH]1`, the Kd was > 4 mM (inactive).
With `N/N=C1\CCCc2c1no[n+]2[O-]` the Kd was > 4 mM (inactive).
In the case of `NCc1ccc(CN2CCOCC2)cc1`, the Kd is reported as > 4 mM (inactive).
With `O=S1(=O)CCC(NCc2ccccc2)C1` (stereo not drawn) the Kd was > 4 mM (inactive).
For `COC(=O)c1ccc2ncccc2c1`, the Kd was > 4 mM (inactive).
With `C=C1C(N)CC2CC1C2(C)C` (stereo not drawn) the Kd was > 4 mM (inactive).
For `Cc1ccc2c(c1)CCCN2C(=O)c1ccncc1`, the Kd was > 4 mM (inactive).
In the case of `CC1CCN(C(=O)c2ccc3c(c2)OCCO3)CC1`, the Kd is reported as > 4 mM (inactive).
`Nc1csc(C(=O)O)c1` was tested, and the Kd was > 4 mM (inactive).
For `Cc1occc1C(=O)Nc1cc(C(C)(C)C)on1`, the Kd was > 4 mM (inactive).
With `Cc1cc(C(=O)Nc2cccnc2)cs1` the Kd was > 4 mM (inactive).
In the case of `Cn1ccnc1C(O)c1ccccc1` (stereo not drawn), the Kd is reported as > 4 mM (inactive).
`Cc1noc(C)c1C(=O)N1CCc2ccccc2C1` was tested, and the Kd was > 4 mM (inactive).
For `Nc1cc(=O)[nH]c(=S)n1-c1cccc(C(F)(F)F)c1`, the Kd was > 4 mM (inactive).
With `O=C(O[C@@H]1Cc2c(O)cc(O)cc2O[C@@H]1c1cc(=O)c(O)c2c(O)c(O)cc([C@H]3Oc4cc(O)cc(O)c4C[C@H]3O)c2c1)c1cc(O)c(O)c(O)c1` the Kd was > 4 mM (inactive).
`Cc1ccc(C(=O)n2cnnc2N)cc1C` was tested, and the Kd was > 4 mM (inactive).
In the case of `CSCCNC(C)=O`, the Kd is reported as > 4 mM (inactive).
With `COc1ccccc1NC(C)=O` the Kd was > 4 mM (inactive).
`COC(=O)NNc1ncnc(N)c1[N+](=O)[O-]` was tested, and the Kd was > 4 mM (inactive).
With `NCc1cc2ccccc2s1` the Kd was > 4 mM (inactive).
`OC1CNCc2cc3c(cc21)OCCO3` (stereo not drawn) was tested, and the Kd was > 4 mM (inactive).
For `CC(C)=CCOc1c2occc2cc2ccc(=O)oc12`, the Kd was > 4 mM (inactive).
With `O=C(O)CN1C(=O)c2ccc(C(=O)O)cc2C1=O` the Kd was > 4 mM (inactive).
For `O=C(/C(=N\O)n1cncn1)c1ccccc1Cl`, the Kd was > 4 mM (inactive).
With `CCc1cccc(C)c1NC(=O)c1cc(C)oc1C` the Kd was > 4 mM (inactive).
`Cc1cc(=O)n(C(N)=S)[nH]1` was tested, and the Kd was > 4 mM (inactive).
`C=C1CCC(C2CC(=O)OC2=O)C(=O)CCC2C1CC2(C)C` (stereo not drawn) was tested, and the Kd was > 4 mM (inactive).
For `O=C(O)c1ccc2[nH]c3c(c2c1)CSCC3`, the Kd was > 4 mM (inactive).
With `COc1cc(NC(=O)c2ccccc2)c(C)cc1N` the Kd was > 4 mM (inactive).
`O=c1n(-c2cccc(Cl)c2)c(=O)n2n1CCC2` was tested, and the Kd was > 4 mM (inactive).
With `Cc1nc(-c2ccccc2)sc1CO` the Kd was > 4 mM (inactive).
With `Nc1cccnc1N1CCOCC1` the Kd was > 4 mM (inactive).
`Nc1nc2[nH]c(=O)c(=O)[nH]c2c(=O)[nH]1` was tested, and the Kd was > 4 mM (inactive).
For `O=S(=O)(c1ccc(F)c(Cl)c1)N1CCCC1`, the Kd was > 4 mM (inactive).
`O=c1oc2ccccc2cc1O` was tested, and the Kd was > 4 mM (inactive).
`COc1ccccc1NC(=O)c1ccc(C)s1` was tested, and the Kd was > 4 mM (inactive).
`COC(=O)CCSCC(=O)Nc1nnc(C)s1` was tested, and the Kd was > 4 mM (inactive).
For `O=C1CCN(c2ccccc2)N1`, the Kd was > 4 mM (inactive).
`Cc1cc(N)on1` was tested, and the Kd was > 4 mM (inactive).
`CSc1ncc(CO)n1Cc1ccccc1` was tested, and the Kd was > 4 mM (inactive).
For `CC(=O)NC(=S)Nc1ccccc1C(N)=O`, the Kd was > 4 mM (inactive).
In the case of `COc1cc([C@@H]2c3cc4c(c(O)c3C[C@H]3COC(=O)[C@@H]32)OCO4)cc(OC)c1OC`, the Kd is reported as > 4 mM (inactive).
With `Nc1cc(=O)[nH]c(=O)n1Cc1ccco1` the Kd was > 4 mM (inactive).
`CCOc1cc(C)c(Cl)cc1S(=O)(=O)N(C)C` was tested, and the Kd was > 4 mM (inactive).
In the case of `Cc1nnc2sc(-c3ccco3)nn12`, the Kd is reported as > 4 mM (inactive).
`O=C(NC12CC3CC(CC(C3)C1)C2)c1cnccn1` was tested, and the Kd was > 4 mM (inactive).
`O=C(O[C@@H]1Cc2c(O)cc(O)cc2O[C@@H]1c1cc(O)c(O)c(O)c1-c1c([C@H]2Oc3cc(O)cc(O)c3C[C@H]2O)cc(O)c(O)c1O)c1cc(O)c(O)c(O)c1` was tested, and the Kd was > 4 mM (inactive).
For `c1cncc(Nc2nc(-c3cccnc3)cs2)c1`, the Kd was > 4 mM (inactive).
For `Cc1nn2c3ccccc3nc2n(Cc2ccccc2)c1=O`, the Kd was > 4 mM (inactive).
In the case of `Cc1ccc(/C=N/NC(N)=O)o1`, the Kd is reported as > 4 mM (inactive).
With `NC(=O)c1ccc(C(N)=O)c(-c2ccccc2)c1` the Kd was > 4 mM (inactive).
With `Cc1cc(C)n(-c2cccc3cccnc23)n1` the Kd was > 4 mM (inactive).
In the case of `Cc1nnc(NC(=O)C(C)Sc2nncn2C)s1` (stereo not drawn), the Kd is reported as > 4 mM (inactive).
With `O=C(Nc1ccon1)c1cc2c(s1)CCCC2` the Kd was > 4 mM (inactive).
In the case of `Cc1nn(-c2ccccc2)nc1C(=O)O`, the Kd is reported as > 4 mM (inactive).
For `O=P(O)(Cc1ccccc1)c1ccccc1`, the Kd was > 4 mM (inactive).
With `COC1=C(OC)C(=O)C(C/C=C(\C)CC/C=C(\C)CC/C=C(\C)CC/C=C(/C)CC/C=C(\C)CC/C=C(\C)CC/C=C(\C)CC/C=C(\C)CC/C=C(\C)CCC=C(C)C)=C(C)C1=O` the Kd was > 4 mM (inactive).
`COc1c(F)c(F)c(-c2csc(N)n2)c(F)c1F` was tested, and the Kd was > 4 mM (inactive).
`CC(=O)O[C@@H]1CC2C(C)(C)[C@H](O)CC[C@]2(C)C2CC[C@@]3(C)[C@H](c4ccoc4)OC(=O)C4OC43[C@@]21C` (stereo partly drawn) was tested, and the Kd was > 4 mM (inactive).
For `COc1ccc2c(c1OC)C(=O)O[C@@H]2[C@@H]1c2cc3c(cc2CCN1C)OCO3`, the Kd was > 4 mM (inactive).
For `C=CC(C1=CC(=O)C(OC)=CC1=O)c1ccc(O)cc1` (stereo not drawn), the Kd was > 4 mM (inactive).
`O=c1c[n+]([O-])c2ccccc2n1OCc1ccccc1` was tested, and the Kd was > 4 mM (inactive).
With `CN1CCC(=NNC(=O)c2ccco2)CC1` the Kd was > 4 mM (inactive).
In the case of `O=C1CCC(=O)N1c1ccc(F)cc1`, the Kd is reported as > 4 mM (inactive).
With `CC(C)C(=O)NC(=S)N1CCOCC1` the Kd was > 4 mM (inactive).
`COc1ccc(S(=O)(=O)N2CCOCC2)cc1C(C)C` was tested, and the Kd was > 4 mM (inactive).
For `O=C(c1cccs1)N1CCCc2ccccc21`, the Kd was > 4 mM (inactive).
`COc1cc2c(cc1OC)C1(O)C(=O)c3ccc(O)c(C(=O)O)c3OC1CO2` (stereo not drawn) was tested, and the Kd was > 4 mM (inactive).
With `COc1ccc(C(=O)NNC(=S)NC(C)=O)cc1` the Kd was > 4 mM (inactive).
In the case of `Cc1cc2c(N)cccc2nn1`, the Kd is reported as > 4 mM (inactive).
In the case of `Cc1ccc(S(=O)(=O)CC(N)=O)cc1`, the Kd is reported as > 4 mM (inactive).
With `NC(=O)c1ccc2c(c1)OCO2` the Kd was > 4 mM (inactive).
For `O=C(O)c1cc(F)cc2c1OCOC2`, the Kd was > 4 mM (inactive).
`Cc1cc2ncc(C(=O)Nc3ccccc3)c(C)n2n1` was tested, and the Kd was > 4 mM (inactive).
In the case of `CCN(CC)C(=O)c1n[nH]c(=O)c2ccccc12`, the Kd is reported as > 4 mM (inactive).
With `Nc1ncnc(Cl)c1[N+](=O)[O-]` the Kd was > 4 mM (inactive).
In the case of `CCNC(=O)CC1Nc2ccccc2NC1=O` (stereo not drawn), the Kd is reported as > 4 mM (inactive).
In the case of `Cc1cc2nc(SCC(=O)O)nc(C)c2cc1C`, the Kd is reported as > 4 mM (inactive).
In the case of `CC(=O)Nc1ccc(NC(=O)c2ccncc2)cc1`, the Kd is reported as > 4 mM (inactive).
`Cc1nnc(SCC(=O)N2CCCCC2)s1` was tested, and the Kd was > 4 mM (inactive).
In the case of `Cc1cc(C(F)(F)F)nn1CC(N)=O`, the Kd is reported as > 4 mM (inactive).
With `O=c1ccn([C@@H]2O[C@H](COP(=O)(O)OP(=O)(O)OP(=O)(O)O)[C@@H](O)[C@H]2O)c(=O)[nH]1` the Kd was > 4 mM (inactive).
With `O=C(O)CCS(=O)(=O)c1ccccc1` the Kd was > 4 mM (inactive).
`CN1CCN(C(=O)Nc2cccc3ccccc23)CC1` was tested, and the Kd was > 4 mM (inactive).
In the case of `CC(=O)Nc1ccc(-c2nc(C)c(C(C)=O)n2O)cc1`, the Kd is reported as > 4 mM (inactive).
In the case of `CC(C)CNc1cc(=O)n(C)c(=O)n1C`, the Kd is reported as > 4 mM (inactive).
With `CC(=O)OCC(=O)[C@@]1(O)CCC2C3CC[C@@H]4C[C@H](OC(C)=O)CC[C@]4(C)C3C(=O)C[C@@]21C` (stereo partly drawn) the Kd was > 4 mM (inactive).
With `Cc1cc(O)c2c(c1)C(=O)c1cccc(O)c1C2=O` the Kd was > 4 mM (inactive).
With `CC1(C)Cc2cccc(CO)c2O1` the Kd was > 4 mM (inactive).
In the case of `CC1CC2(NC(=O)NC2=O)C(C)CN1C` (stereo not drawn), the Kd is reported as > 4 mM (inactive).
With `NC(=O)CCS(=O)(=O)CCN1CCOCC1` the Kd was > 4 mM (inactive).
In the case of `Cc1ccc(NC(=O)N2CCC(C(N)=O)CC2)cc1`, the Kd is reported as > 4 mM (inactive).

— PubChem BioAssay AID1549 (Sanford-Burnham Center for Chemical Genomics, 2009)
